Source: ChEMBL document CHEMBL3885881, “DrugMatrix”

Species: Rattus norvegicus
Test: DrugMatrix - Regimen: Daily Repeat
Assay type: toxicity, organism-based, Sprague-Dawley
Parameters: regimen Daily Repeat, gender Male, age 6-8 weeks
Details: in vivo, po, route oral GAVAGE, vehicle 100 % WATER; for ABSOLUTE BASOPHIL / ABSOLUTE EOSINOPHIL / ABSOLUTE LYMPHOCYTE / ABSOLUTE MONOCYTE / ABSOLUTE SEGMENTED NEUTROPHIL / BASOPHIL / EOSINOPHIL / ERYTHROCYTE COUNT / HEMATOCRIT / HEMOGLOBIN / LEUKOCYTE COUNT / LYMPHOCYTE / MEAN CORPUSCULAR HEMOGLOBIN / MEAN CORPUSCULAR HEMOGLOBIN CONCENTRATION / NEUTROPHIL / NUCLEATED RED BLOOD CELLS / PLATELET COUNT: tissue Blood; for ALANINE AMINOTRANSFERASE / ALBUMIN / ALKALINE PHOSPHATASE / ASPARTATE AMINOTRANSFERASE / BLOOD UREA NITROGEN / CARBON DIOXIDE / CHLORIDE / CHOLESTEROL / CREATINE PHOSPHOKINASE / CREATININE / GLUCOSE / LACTATE DEHYDROGENASE / LIPASE / PHOSPHORUS / POTASSIUM / SODIUM / TOTAL BILIRUBIN / TOTAL PROTEIN / URIC ACID: tissue Plasma
[1] = 94 mg/kg, 120 h, dose level High, time 5 day
[2] = […], 72 h, dose 2.3 mg/Kg, dose level Low, time 3 day
[3] = […], 120 h, dose 2.3 mg/Kg, dose level Low, time 5 day

CN1[C@@H]2CC[C@H]1C[C@@H](OC(=O)C(CO)c1ccccc1)C2 (stereo partly drawn) [ATROPINE]
ABSOLUTE BASOPHIL [1]: 0 CELLS/uL
ABSOLUTE EOSINOPHIL [1]: 26.33 CELLS/uL
ABSOLUTE LYMPHOCYTE [1]: 8136 CELLS/uL
ABSOLUTE MONOCYTE [1]: 82.33 CELLS/uL
ABSOLUTE SEGMENTED NEUTROPHIL [1]: 555.33 CELLS/uL
BASOPHIL [1]: 0%
EOSINOPHIL [1]: 0.33%
ERYTHROCYTE COUNT [1]: 5.33 x10E6/uL
HEMATOCRIT [1]: 35.2%
HEMOGLOBIN [1]: 13.4 G/DL
LEUKOCYTE COUNT [1]: 8.8 x10E3/uL
LYMPHOCYTE [1]: 92.33%
MEAN CORPUSCULAR HEMOGLOBIN [1]: 25.13 pg
MEAN CORPUSCULAR HEMOGLOBIN CONCENTRATION [1]: 38.07 G/DL
NEUTROPHIL [1]: 6.33%
NUCLEATED RED BLOOD CELLS [1]: 0.33 /100WBC
PLATELET COUNT [1]: 1133.67 x10E3/uL
ALANINE AMINOTRANSFERASE [1]: 73.67 u/L
ALBUMIN [1]: 4.13 G/DL
ALKALINE PHOSPHATASE [1]: 335 u/L
ASPARTATE AMINOTRANSFERASE [1]: 106.67 u/L
BLOOD UREA NITROGEN [1]: 13 mg/dL
CARBON DIOXIDE [1]: 32 mmol/L
CHLORIDE [1]: 99.67 MEQ/L
CHOLESTEROL [1]: 52.33 mg/dL
CREATINE PHOSPHOKINASE [1]: 367.67 u/L
CREATININE [1]: 0.1 mg/dL
GLUCOSE [1]: 155 mg/dL
LACTATE DEHYDROGENASE [1]: 214.33 u/L
LIPASE [1]: 11 u/L
PHOSPHORUS [1]: 9.67 mg/dL
POTASSIUM [1]: 5.56 MEQ/L
SODIUM [1]: 143.2 MEQ/L
TOTAL BILIRUBIN [1]: 0.17 mg/dL
TOTAL PROTEIN [1]: 6.03 G/DL
URIC ACID [1]: 0.37 mg/dL
ABSOLUTE BASOPHIL [2]: 0 CELLS/uL
ABSOLUTE EOSINOPHIL [2]: 0 CELLS/uL
ABSOLUTE LYMPHOCYTE [2]: 12169.33 CELLS/uL
ABSOLUTE MONOCYTE [2]: 203.67 CELLS/uL
ABSOLUTE SEGMENTED NEUTROPHIL [2]: 1660.33 CELLS/uL
BASOPHIL [2]: 0%
EOSINOPHIL [2]: 0%
ERYTHROCYTE COUNT [2]: 5.43 x10E6/uL
HEMATOCRIT [2]: 34.63%
HEMOGLOBIN [2]: 13.57 G/DL
LEUKOCYTE COUNT [2]: 14.03 x10E3/uL
LYMPHOCYTE [2]: 88%
MEAN CORPUSCULAR HEMOGLOBIN [2]: 25 pg
MEAN CORPUSCULAR HEMOGLOBIN CONCENTRATION [2]: 39.17 G/DL
NEUTROPHIL [2]: 10.67%
NUCLEATED RED BLOOD CELLS [2]: 0 /100WBC
PLATELET COUNT [2]: 1077.33 x10E3/uL
ALANINE AMINOTRANSFERASE [2]: 49 u/L
ALBUMIN [2]: 3.93 G/DL
ALKALINE PHOSPHATASE [2]: 305.33 u/L
ASPARTATE AMINOTRANSFERASE [2]: 82.67 u/L
BLOOD UREA NITROGEN [2]: 10.67 mg/dL
CARBON DIOXIDE [2]: 28.67 mmol/L
CHLORIDE [2]: 99.33 MEQ/L
CHOLESTEROL [2]: 68.67 mg/dL
CREATINE PHOSPHOKINASE [2]: 256.67 u/L
CREATININE [2]: 0.1 mg/dL
GLUCOSE [2]: 142.67 mg/dL
LACTATE DEHYDROGENASE [2]: 161 u/L
LIPASE [2]: 9.33 u/L
PHOSPHORUS [2]: 10.27 mg/dL
POTASSIUM [2]: 6.48 MEQ/L
SODIUM [2]: 141.6 MEQ/L
TOTAL BILIRUBIN [2]: 0.27 mg/dL
TOTAL PROTEIN [2]: 5.63 G/DL
URIC ACID [2]: 0.97 mg/dL
ABSOLUTE BASOPHIL [3]: 0 CELLS/uL
ABSOLUTE EOSINOPHIL [3]: 0 CELLS/uL
ABSOLUTE LYMPHOCYTE [3]: 8930.67 CELLS/uL
ABSOLUTE MONOCYTE [3]: 135.33 CELLS/uL
ABSOLUTE SEGMENTED NEUTROPHIL [3]: 600.67 CELLS/uL
BASOPHIL [3]: 0%
EOSINOPHIL [3]: 0%
ERYTHROCYTE COUNT [3]: 5.39 x10E6/uL
HEMATOCRIT [3]: 35.13%
HEMOGLOBIN [3]: 13.5 G/DL
LEUKOCYTE COUNT [3]: 9.67 x10E3/uL
LYMPHOCYTE [3]: 93%
MEAN CORPUSCULAR HEMOGLOBIN [3]: 25.07 pg
MEAN CORPUSCULAR HEMOGLOBIN CONCENTRATION [3]: 38.43 G/DL
NEUTROPHIL [3]: 6%
NUCLEATED RED BLOOD CELLS [3]: 0 /100WBC
PLATELET COUNT [3]: 1298.67 x10E3/uL
ALANINE AMINOTRANSFERASE [3]: 55.33 u/L
ALBUMIN [3]: 4.07 G/DL
ALKALINE PHOSPHATASE [3]: 274 u/L
ASPARTATE AMINOTRANSFERASE [3]: 83 u/L
BLOOD UREA NITROGEN [3]: 13.67 mg/dL
CARBON DIOXIDE [3]: 34.67 mmol/L
CHLORIDE [3]: 98.33 MEQ/L
CHOLESTEROL [3]: 64.67 mg/dL
CREATINE PHOSPHOKINASE [3]: 318.67 u/L
CREATININE [3]: 0.12 mg/dL
GLUCOSE [3]: 137.67 mg/dL
LACTATE DEHYDROGENASE [3]: 169.67 u/L
LIPASE [3]: 12.33 u/L
PHOSPHORUS [3]: 10 mg/dL
POTASSIUM [3]: 5.77 MEQ/L
SODIUM [3]: 144.13 MEQ/L
TOTAL BILIRUBIN [3]: 0.2 mg/dL
TOTAL PROTEIN [3]: 6.23 G/DL
URIC ACID [3]: 0.37 mg/dL
